This is an account of results in US12459951B2, “Compounds that interact with RAS superfamily proteins for treatment of cancers, inflammatory diseases, rasopathies, and fibrotic disease” (SHY Therapeutics, LLC, priority 2022, dated 2025).

SMILES strings stand for the structures.

One assay concerns KRas wild type. The experiment in a line: Ras GTP Binding Domain Inhibition Assay (Ras Superfamily Assay). The note with it: 20 μM compound; for KRas wild type + SOS: % inh.: with SOS; for KRas wild type: % inh.: without SOS. The essentials:
(§1)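 Binding of 100 nM fluorescent GTP (Cy3 or Cy5, 45 min, room temperature) was read after washes from plate-captured His-tagged protein. Beforehand, compounds at 20 μM or in dilution series for IC50 sat 3 h on the protein in Tris buffer pH 7.4 or 7.0 with 1% DMSO, Sos GEF optionally added for the last hour.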

A further assay has as its target T1, Rac-1 (Homo sapiens, UniProt P63000).
T1 construct: made in house
Described as above. Conditions: read-out: Rac-1: % inh. An outline of the steps:
as §1

A further assay relates to KRas G12D mutant. The description is as above. The note with it: 20 μM compound; for KRas G12D mutant + SOS: % inh.: with SOS; for KRas G12D mutant: % inh.: without SOS. An outline of the steps:
as §1

Another assay deals with Erk1/2 phosphorylation. Description: Erk1/2 Phosphorylation Assay (western blot), Panc-1. The format is cell-based, human. Conditions: at 10 μM, * = activation. The essentials:
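Phospho-Erk1/2 (Thr202/Tyr204) was detected by western blot in lysates of Panc-1 cells (KRas G12D). These had 6 h, 37° C exposure to 10 μM compound or a dilution series for IC50, in 0.3% DMSO. Cells were either starved overnight in 0.5% FBS with a 15-min 1.5 ng/ml EGF pulse, or kept unstimulated in 10% FBS.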

Consider `CO[C@H]1CC[C@@H](Nc2nc(-c3nccn3C)nn3cc(-c4ccn(C)n4)c(C)c23)C1` (racemic) [Compound 133, rac N-((1R,3S)-3-Methoxycyclopentyl)-5-methyl-2-(1-methyl-1H-imidazol-2-yl)-6-(1-methyl-1H-pyrazol-3-yl)pyrrolo[2,1-f][1,2,4]triazin-4-amine], for which, in the assay with KRas wild type, the “KRas wild type + SOS: % inh.” value is listed as 0 (0 = 0% inhibition) and the “KRas wild type: % inh.” value is on record as “A (A = 1-25% inhibition)”. For the same compound, at Rac-1, the inhibition at 20 µM is 1 to 25%. Moreover, in the assay with KRas G12D mutant, the “KRas G12D mutant + SOS: % inh.” value was 0 (0 = 0% inhibition) and the “KRas G12D mutant: % inh.” value is “B (B = 26-49% inhibition)”. In addition, the “% inh of Erk1/2 phosphorylation in Panc-1” value (from here on “% inh … in Panc-1”) with Erk1/2 phosphorylation is listed as “A (1-25% inhibition)”.
As to `COc1cc(-c2cn3nc(-c4nccn4C)nc(N[C@H]4C[C@@H](OC)C4)c3c2C)ccn1` [Compound 162, N-((1s,3s)-3-Methoxycyclobutyl)-6-(2-methoxypyridin-4-yl)-5-methyl-2-(1-methyl-1H-imidazol-2-yl)pyrrolo[2,1-f][1,2,4]triazin-4-amine], in the assay with KRas wild type, the “KRas wild type + SOS: % inh.” value was 0 (0 = 0% inhibition) and the “KRas wild type: % inh.” value is listed as “A (A = 1-25% inhibition)”. Besides, on Rac-1, the inhibition at 20 µM was 0%. In the assay with KRas G12D mutant, the “KRas G12D mutant + SOS: % inh.” value was 0 (0 = 0% inhibition) and the “KRas G12D mutant: % inh.” value is 0 (0 = 0% inhibition). For the same compound, the “% inh … in Panc-1” value in the assay with Erk1/2 phosphorylation is recorded as “A (1-25% inhibition)”.
Consider `COc1cc(Nc2nc(-c3nccn3C)nn3cc(-c4cccnc4)c(-c4ccccn4)c23)ncn1` [Compound 167, N-(6-Methoxypyrimidin-4-yl)-2-(1-methyl-1H-imidazol-2-yl)-5-(pyridin-2-yl)-6-(pyridin-3-yl)pyrrolo[2,1-f][1,2,4]triazin-4-amine], for which, in the assay with KRas wild type, the “KRas wild type + SOS: % inh.” value is recorded as “A (A = 1-25% inhibition)” and the “KRas wild type: % inh.” value is recorded as “A (A = 1-25% inhibition)”. Besides, the inhibition at 20 µM on Rac-1 lay within 1 to 25%. Besides, in the assay with KRas G12D mutant, the “KRas G12D mutant + SOS: % inh.” value is on record as “A (A = 1-25% inhibition)” and the “KRas G12D mutant: % inh.” value was “B (B = 26-49% inhibition)”. Also, the “% inh … in Panc-1” value in the assay with Erk1/2 phosphorylation was “A (1-25% inhibition)”.
As to `COc1cc(Nc2nc(-c3nccn3C)nn3cc(-c4ccccn4)c(C)c23)ncn1` [Compound 94, N-(6-Methoxypyrimidin-4-yl)-5-methyl-2-(1-methyl-1H-imidazol-2-yl)-6-(pyridin-2-yl)pyrrolo[2,1-f][1,2,4]triazin-4-amine], in the assay on KRas wild type, the “KRas wild type + SOS: % inh.” value is given as “B (B = 26-49% inhibition)” and the “KRas wild type: % inh.” value is recorded as “C (C = 50-75% inhibition)”. The inhibition at 20 µM at Rac-1 is 50 to 75%. In the assay on KRas G12D mutant, the “KRas G12D mutant + SOS: % inh.” value was “B (B = 26-49% inhibition)” and the “KRas G12D mutant: % inh.” value is reported as “C (C = 50-75% inhibition)”. Moreover, in the assay with Erk1/2 phosphorylation, the “% inh … in Panc-1” value is given as “C* (46-84% activation)”.
Turning to `COc1cc(-c2cn3nc(-c4nccn4C)nc(N[C@@H]4CC[C@H](OC)C4)c3c2C)ccn1` (racemic) [Compound 164, rac N-((1R,3S)-3-Methoxycyclopentyl)-6-(2-methoxypyridin-4-yl)-5-methyl-2-(1-methyl-1H-imidazol-2-yl)pyrrolo[2,1-f][1,2,4]triazin-4-amine], in the assay with KRas wild type, the “KRas wild type + SOS: % inh.” value is “A (A = 1-25% inhibition)” and the “KRas wild type: % inh.” value is on record as “A (A = 1-25% inhibition)”. For the same compound, the inhibition at 20 µM at Rac-1 is 1 to 25%. Besides, in the assay on KRas G12D mutant, the “KRas G12D mutant + SOS: % inh.” value was 0 (0 = 0% inhibition) and the “KRas G12D mutant: % inh.” value is “A (A = 1-25% inhibition)”. Moreover, in the assay with Erk1/2 phosphorylation, the “% inh … in Panc-1” value was “A* (1-25% activation)”.
For `Cc1c(-c2ccn(C)n2)cn2nc(-c3nccn3C)nc(Nc3cc(OC(F)(F)F)ccn3)c12` [Compound 127, 5-Methyl-2-(1-methyl-1H-imidazol-2-yl)-6-(1-methyl-1H-pyrazol-3-yl)-N-(4-(trifluoromethoxy)pyridin-2-yl)pyrrolo[2,1-f][1,2,4]triazin-4-amine], in the assay with KRas wild type, the “KRas wild type + SOS: % inh.” value was “D (D = 76-100% inhibition)” and the “KRas wild type: % inh.” value is given as “D (D = 76-100% inhibition)”. The inhibition at 20 µM at Rac-1 fell in the range of 76 to 100%. Besides, in the assay with KRas G12D mutant, the “KRas G12D mutant + SOS: % inh.” value is listed as “D (D = 76-100% inhibition)” and the “KRas G12D mutant: % inh.” value is reported as “D (D = 76-100% inhibition)”. In addition, the “% inh … in Panc-1” value in the assay on Erk1/2 phosphorylation is “D* (85-100% activation)”.
Regarding `Cc1c(-c2ccn(C)n2)cn2nc(-c3nccn3C)nc(Nc3cc(C4CC4)[nH]n3)c12` [Compound 104, N-(5-Cyclopropyl-1H-pyrazol-3-yl)-5-methyl-2-(1-methyl-1H-imidazol-2-yl)-6-(1-methyl-1H-pyrazol-3-yl)pyrrolo[2,1-f][1,2,4]triazin-4-amine], in the assay on KRas wild type, the “KRas wild type + SOS: % inh.” value is reported as “D (D = 76-100% inhibition)” and the “KRas wild type: % inh.” value is “D (D = 76-100% inhibition)”. Besides, the inhibition at 20 µM on Rac-1 was in the range of 76 to 100%. Moreover, in the assay on KRas G12D mutant, the “KRas G12D mutant + SOS: % inh.” value is listed as “D (D = 76-100% inhibition)” and the “KRas G12D mutant: % inh.” value is recorded as “D (D = 76-100% inhibition)”. The “% inh … in Panc-1” value in the assay with Erk1/2 phosphorylation is recorded as “D* (85-100% activation)”.
